In brackets after ≈: the same amount, converted by molar mass.
Tested on: L1210
Test: Cytotoxicity against mouse L1210 cells
Format: functional, cell-based

Question: `CC(C)C[C@@]1(O)C[C@@H](C)[C@H]2[C@@H]1C(=O)[C@H]1[C@@H]3[C@@H](O)[C@H](O)[C@H]4C[C@H](O)CC[C@]4(C)[C@H]3CC[C@]21C` was tested. Which IC50 did it give?
Answer: The IC50 was 4 µg/mL (≈ 8.92 µM).

Question: For `CC(C)C[C@@]1(O)C[C@@H](C)[C@H]2[C@@H]1C(=O)[C@H]1[C@@H]3[C@@H](O)[C@H](O)[C@H]4C[C@H](O)[C@@H](O)C[C@]4(C)[C@H]3CC[C@]21C`, which IC50 is on record?
Answer: The IC50 was 4.1 µg/mL (≈ 8.82 µM).

Question: Which IC50 does the source give for `CC(C)C[C@@]1(O)C[C@@H](C)[C@H]2[C@@H]1C(=O)[C@H]1[C@@H]3[C@@H](O)[C@H](O)[C@H]4C[C@H](O)[C@@H](O)[C@@H](O)[C@]4(C)[C@H]3CC[C@]21C` here?
Answer: The IC50 was > 10 µg/mL.
